According to US20060037085A1, “Animal model for fetal alcohol syndrome and methods of treatment” (priority 2004, published 2006):
Several values for one entry are separate records, joined by “and”; a condition that tells them apart may be missing. Equal entries are not always repeated. Where two headings read alike, the source gives them in different places. Marks after values point to notes of the source that are not given here.

What was measured:
[1] = test system: Pax6, Otx2, Sox2, Sox3, NCAM, Vent1; assay: RT-PCR of neural markers (animal caps or embryos); format: cell-based, Xenopus laevis; settings: animal caps
Excerpt: (§1) RT-PCR Animal caps were dissected from embryos at stage 8.5 and cultured in 67% Leibovitz's L-15 medium, pH 7.5 in the presence or absence of varied concentration of alcohol until stage 22. Total RNA was extracted from cultured animal caps with Trizol reagent (Invitrogen). Primer sets and PCR conditions for NCAM and Pax6 have been described in our previous reports (Peng, Neurobiol. Dis., 2004; Peng, J. Mol. Biol., 2004). PCR products were subject to electrophoresis on TBE gel and visualized by ethidium bromide staining.
(§2) Animal cap explant assay. […] Total RNA was extracted from animal caps or whole embryos using TRIZOL reagent (Invitrogen). The total RNA was reverse transcribed using the Superscript system (Invitrogen), and the first strand cDNA of the target gene amplified by PCR.
(§3) The Xenopus animal cap is composed of pluripotent cells that can be induced to form neural, mesodermal, or epidermal tissue, and is a useful tissue to assess the activity of various factors on neural development. Animal caps were treated with varied concentrations of alcohol as indicated.

Xenopus laevis embryos [2] = settings: for % body length of control / % width between eyes of control / N (normal) tadpoles / def (deformed) tadpoles: Xenopus laevis
Description: Embryo collection and experimental conditions for Xenopus model. […] In each experiment, embryos at the 2-4 cell stage were collected from the dejellied embryos. […] Each group was then incubated in a plastic petri dish containing 10 ml of 30% MMR, with or without ethanol for 12 hours. Embryos were allowed to develop for approximately 48 hours at room temperature (22° C.), until the control group reached tadpole stage (stage 45). The conditions used for producing eye defects (Peng et al, 2004), delayed gut development (Peng), microencephaly (Peng et al), and growth retardation (Peng) are shown in detail in the attached references.
(§4) Morphological measurements of microcephaly and growth retardation.
In a specific embodiment, embryos are exposed to at least about 0.4%, 0.5%, 0.6%, 0.7%, 0.8%, 0.9% or 1% alcohol.
Embryos were exposed to 0.6% ethanol at stage 9, 11, 13, 16, 18, 20, 23, 25 and 40 and were grown until the control “no ethanol” group reached tadpole stage. The morphology of the tadpoles was then examined (Table 2).
To determine the minimum duration required to produce fetal deformations, embryos at stage 13 were exposed to 0.6% of alcohol for 1, 2, 4, 6, 12, 24, 36 or 48 hours.

NF-κB = NF-κB reporter assay (pLuc-NF-κB) in whole embryos; format: in vivo, Xenopus laevis; settings: 0.6% ethanol, recorded at stage 22
Description: NF-κB reporter assay. NF-κB luciferase reporter plasmid (pLuc-NF-κB) containing IL-6 promoter region with four repeats of NF-κB binding sites was used to measure NF-κB-mediated transcriptional activity (Li, 1997). Embryos at the two-cell stage were injected with pLuc-NF-κB, treated as indicated in the text, harvested, and lysed at stage 22. Protein concentration was determined. The luciferase activities were measured and calculated as relative luciferase activity per mg of protein.
In this embodiment, NF-κB activity was measured in the whole embryo by the reporter construct pLuc-NF-κB, which was injected into embryos at 2-cell stage.

[3] = test system: Xenopus laevis tadpole brain; assay: Histological analysis of brain injury (coronal brain sections of tadpoles); settings: tadpoles treated with alcohol
Excerpt: Histological analysis of brain injury. Embryos were fixed in 2% paraformaldehyde, dehydrated, embedded in paraffin. The embryos were sectioned coronally through the head and stained with hematoxylin and eosin.
The EF-1α transcript was detected as an internal control for equal RNA load.

Xenopus laevis embryos [4] = test system: Xenopus laevis embryos
Description: Morphological measurements of microcephaly and growth retardation. The tadpoles were then fixed in 2% paraformaldehyde in 30% MMR, and their morphologies examined by light microscopy and photographs were taken at a fixed magnification for body length and head width measurements. The following criteria were recorded: (1) the number of normal/deformed/dead embryos; (2) length of the body measured between the tip of the jaw and the tip of the tail, and (3) width between the eyes measured at the widest level of that of the tadpoles.
In each experiment, embryos at 2-cell stage were collected and microinjected with the expression plasmid for either catalase (pCMS-CAT), xPax6 (pCS2+xPax6) or xSox2 (pCS2+xSox2) into each of the two blastomeres. After reaching stage 13, the embryos were divided into groups, each consisting of 20 embryos, which were then incubated in 10 ml of 30% Modified Marc's Ringer (MMR) for 12 hours until stage 22 in the presence or absence of varied concentrations of alcohol as indicated. As alcohol is volatile, the experimental media were replaced with fresh media every 4 hours during the course of alcohol treatment to minimize fluctuations in the alcohol concentration. At stage 22, embryos were transferred to 10 ml of 30% MMR without alcohol and allowed to grow until the control group reached the tadpole stage (stage 40 or 45). The tadpoles were then fixed and examined. Each experiment was repeated at least once with reproducible results.
The injected embryos were allowed to grow to stage 40, and their head size and body length were then compared to that of the control embryos injected with mock plasmid pCS2+ and without alcohol treatment. […] In a separate experiment, 100 pg pCS2+xSox2 or pCS2+ plasmid was injected into animal pole at two-cell stage embryos (n=50) and treated these embryos in 0.6% alcohol under the same conditions as described for Pax6.
As H2O2 is the major ROS produced by fetal alcohol exposure (Ozer et al., 2000), whether eliminating alcohol-induced H2O2 production can prevent microcephaly was examined by the protective effect of catalase. Human catalase was overexpressed in Xenopus embryos by microinjecting the two-cell stage embryos with 100 pg of catalase expression plasmid pCMS-CAT, and then treating them with or without 0.6% alcohol from stage 13 to 22.

NCAM = settings: animal caps until stage 22
Excerpt: as §1, §2, §3

Pax6 = settings: animal caps until stage 22
Excerpt: as §1, §2, §3

[5] = test system: alcohol-induced ROS production; assay: ROS measurement (hydrogen peroxide level in embryos); format: in vivo, Xenopus laevis; settings: 0.6% alcohol, stage 13 to 22, harvested at stage 22
Description: (A) Embryos were pretreated with or without vitamin C two hours before alcohol treatment (0.6%, 12 h, from stage 13 to 22). The embryos were harvested at stage 22 and the hydrogen peroxide level measured by the colorimetric quantitation of hydrogen peroxide method (total hydroperoxides), according to the protocols provided by the manufacturer (BIOXYTECH H202-560 kit, OXIS International, Inc., USA); (B) The NF-κB mediated transcriptional activity was measured using NF-κB luciferase reporter plasmid (pLuc-NF-κB) containing IL-6 promoter region with four repeats of NF-κB binding sites.
ROS measurement. […] At the end of the experiment, embryos were harvested and total ROS content was determined by the calorimetric quantitation of hydrogen peroxide method (total hydroperoxides), following protocols provided by the manufacturer (BIOXYTECH H202-560 kit, OXIS International, Inc. USA).

Xenopus laevis embryos [6] = test system: Xenopus laevis embryos; remark: listed apart in the source
Description: as §4
Vitamin C treatment. Embryos at stage 13 (initial neural plate stage) were collected and divided into groups, each containing 15-20 embryos and incubated in a plastic petri dish containing MMR medium as stated above. Vitamin C, having a concentration of 100 μM, was added either concomitantly, 2 hours before, or 2 hours after the initiation of a 12-hour alcohol exposure. The tadpoles were fixed and measurements were made as stated above.

[7] = pCMS-EGFP vector-injected embryos, 0.6% alcohol stage 13 to 22

CCO [Ethanol, ethanol]
Otx2, Sox2, and Sox3 expression ([1]; alcohol 0.1% to 0.6%): less sensitive to alcohol | expression of the general ventral marker Vent1 ([1]; alcohol): not seriously affected | dead (Xenopus laevis embryos [2]; 0.3% ethanol from stage 11 until control reached stage 45, 15 embryos per group): 2 | dead (Xenopus laevis embryos [2]; 0.4% ethanol from stage 11 until control reached stage 45, 15 embryos per group): 1 | dead (Xenopus laevis embryos [2]; 0.5% ethanol from stage 11 until control reached stage 45, 15 embryos per group): 2 | mortality, head and body sizes vs control (Xenopus laevis embryos [2]; 0.6% alcohol, 12-hour exposure, stage 13-22): increased mortality and marked reduction in head and body sizes | dead (Xenopus laevis embryos [2]; 0.6% ethanol from stage 11 until control reached stage 45, 15 embryos per group): 1 | dead (Xenopus laevis embryos [2]; 0.6% ethanol, initial exposure at Stage 11, until control reached tadpole stage): 3 | dead (Xenopus laevis embryos [2]; 0.6% ethanol, initial exposure at Stage 13, until control reached tadpole stage): 2 | dead (Xenopus laevis embryos [2]; 0.6% ethanol, initial exposure at Stage 16, until control reached tadpole stage): 1 | dead (Xenopus laevis embryos [2]; 0.6% ethanol, initial exposure at Stage 18, until control reached tadpole stage): 1 | dead (Xenopus laevis embryos [2]; 0.6% ethanol, initial exposure at Stage 20, until control reached tadpole stage): 2 | dead (Xenopus laevis embryos [2]; 0.6% ethanol, initial exposure at Stage 23, until control reached tadpole stage): 1 | dead (Xenopus laevis embryos [2]; 1.0% ethanol from stage 11 until control reached stage 45, 15 embryos per group): 3 | dead (Xenopus laevis embryos [2]; 1.5% ethanol from stage 11 until control reached stage 45, 15 embryos per group): 4 | dead (Xenopus laevis embryos [2]; 2.0% ethanol from stage 11 until control reached stage 45, 15 embryos per group): 6 | % body length of control (Xenopus laevis embryos [2]; in vivo, 0.3 %): 95 ± 54% | % width between eyes of control (Xenopus laevis embryos [2]; in vivo, 0.3 %): 84 ± 15% | N (normal) tadpoles (Xenopus laevis embryos [2]; in vivo, 0.3 %): 11 | def (deformed) tadpoles (Xenopus laevis embryos [2]; in vivo, 0.3 %): 3 | % body length of control (Xenopus laevis embryos [2]; in vivo, 0.4 %): 90 ± 41% | % width between eyes of control (Xenopus laevis embryos [2]; in vivo, 0.4 %): 81 ± 11 % | N (normal) tadpoles (Xenopus laevis embryos [2]; in vivo, 0.4 %): 10 | def (deformed) tadpoles (Xenopus laevis embryos [2]; in vivo, 0.4 %): 4 | % body length of control (Xenopus laevis embryos [2]; in vivo, 0.5 %): 85 ± 57 % | % width between eyes of control (Xenopus laevis embryos [2]; in vivo, 0.5 %): 75 ± 09 % | N (normal) tadpoles (Xenopus laevis embryos [2]; in vivo, 0.5 %): 7 | def (deformed) tadpoles (Xenopus laevis embryos [2]; in vivo, 0.5 %): 6 | % body length of control (Xenopus laevis embryos [2]; in vivo, 0.6 %): 74 ± 34 % | % width between eyes of control (Xenopus laevis embryos [2]; in vivo, 0.6 %): 70 ± 18 % | N (normal) tadpoles (Xenopus laevis embryos [2]; in vivo, 0.6 %): 5 | def (deformed) tadpoles (Xenopus laevis embryos [2]; in vivo, 0.6 %): 9 | % body length of control (Xenopus laevis embryos [2]; in vivo, 1 %): 70 ± 39 % | % width between eyes of control (Xenopus laevis embryos [2]; in vivo, 1 %): 69 ± 21 % | N (normal) tadpoles (Xenopus laevis embryos [2]; in vivo, 1 %): 2 | def (deformed) tadpoles (Xenopus laevis embryos [2]; in vivo, 1 %): 10 | % body length of control (Xenopus laevis embryos [2]; in vivo, 1.5 %): 67 ± 51 % | % width between eyes of control (Xenopus laevis embryos [2]; in vivo, 1.5 %): 67 ± 17 % | N (normal) tadpoles (Xenopus laevis embryos [2]; in vivo, 1.5 %): 1 | def (deformed) tadpoles (Xenopus laevis embryos [2]; in vivo, 1.5 %): 10 | % body length of control (Xenopus laevis embryos [2]; in vivo, 2 %): 65 ± 58 % | % width between eyes of control (Xenopus laevis embryos [2]; in vivo, 2 %): 67 ± 23 % | N (normal) tadpoles (Xenopus laevis embryos [2]; in vivo, 2 %): 0 | def (deformed) tadpoles (Xenopus laevis embryos [2]; in vivo, 2 %): 9 | effect on viability and morphology of the tadpoles (Xenopus laevis embryos [2]; in vivo): no significant effect in either the viability or the morphology of the tadpoles | teratogenic effect (Xenopus laevis embryos [2]; in vivo): resistant to the teratogenic effect of alcohol | mortality rate (Xenopus laevis embryos [2]; stage 40 tadpoles exposed to 0.6% alcohol): 80% | NF-κB activity in the embryo (luciferase reporter) (NF-κB): increased | size of the forebrain area vs control [3]: reduction in size of the forebrain area | alive (Total/alive) (Xenopus laevis embryos [4]; Xenopus laevis, in vivo, 12 h): 40/32 | Body length (% of control) (Xenopus laevis embryos [4]; [7]): 84 % of control and 83.7 ± 10.1^a % of control | Distance between eyes (% of control) (Xenopus laevis embryos [4]; [7]): 81 % of control and 81.3 ± 14^a % of control | frequency of noted microcephaly and growth retardation (Xenopus laevis embryos [4]; pCS2+ (mock plasmid) injected group, 0.6% alcohol): 52% | reduction of NCAM expression (NCAM; 0.1% alcohol): 15% | reduction of NCAM expression (NCAM; 0.2% alcohol): 25% | reduction of NCAM expression (NCAM; 0.3% alcohol): 50% | reduction of NCAM expression (NCAM; 0.4% alcohol): 70% | suppression of Pax6 expression (Pax6; 0.1% alcohol): 25% | suppression of Pax6 expression (Pax6; 0.2% alcohol): 50% | suppression of Pax6 expression (Pax6; 0.3% (65 mM) alcohol): 90% | hydrogen peroxide level in the embryos ([5]; listed as alcohol): significantly augmented | hydrogen peroxide level in the embryos ([5]; listed as ethanol): significantly increased | dead (Xenopus laevis embryos [6]; 0.6% EtOH for 12 hours from stage 13, 15 embryos): 2 | Alive (Xenopus laevis embryos [6]; Xenopus laevis, in vivo, 12 h): 13 | Body length (Xenopus laevis embryos [6]; Xenopus laevis, in vivo, 12 h): 9.25 ± 010^b mm | Eye distance (Xenopus laevis embryos [6]; Xenopus laevis, in vivo, 12 h): 1.63 ± 005^b mm
